Measured values taken from patent US12583849B2, “KCNT1 inhibitors and methods of use” (Praxis Precision Medicines, Inc., priority 2020, dated 2026).

The compounds below were run against T1, KCNT1 (KNa1.1, Slack) (Homo sapiens, UniProt Q5JUK3) (assay: KCNT1-WT-Basal Patch Clamp Assay). Conditions: tetracycline inducible cell line (HEK-TREX); SyncroPatch 384PE automated patch clamp, perforated patch mode, room temperature, step from -80 mV to 0 mV.
T1 construct: expressed in transfected cells; host or cells: HEK-TREX (tetracycline-inducible cell line)
T1 sequence (Q5JUK3 1-1230): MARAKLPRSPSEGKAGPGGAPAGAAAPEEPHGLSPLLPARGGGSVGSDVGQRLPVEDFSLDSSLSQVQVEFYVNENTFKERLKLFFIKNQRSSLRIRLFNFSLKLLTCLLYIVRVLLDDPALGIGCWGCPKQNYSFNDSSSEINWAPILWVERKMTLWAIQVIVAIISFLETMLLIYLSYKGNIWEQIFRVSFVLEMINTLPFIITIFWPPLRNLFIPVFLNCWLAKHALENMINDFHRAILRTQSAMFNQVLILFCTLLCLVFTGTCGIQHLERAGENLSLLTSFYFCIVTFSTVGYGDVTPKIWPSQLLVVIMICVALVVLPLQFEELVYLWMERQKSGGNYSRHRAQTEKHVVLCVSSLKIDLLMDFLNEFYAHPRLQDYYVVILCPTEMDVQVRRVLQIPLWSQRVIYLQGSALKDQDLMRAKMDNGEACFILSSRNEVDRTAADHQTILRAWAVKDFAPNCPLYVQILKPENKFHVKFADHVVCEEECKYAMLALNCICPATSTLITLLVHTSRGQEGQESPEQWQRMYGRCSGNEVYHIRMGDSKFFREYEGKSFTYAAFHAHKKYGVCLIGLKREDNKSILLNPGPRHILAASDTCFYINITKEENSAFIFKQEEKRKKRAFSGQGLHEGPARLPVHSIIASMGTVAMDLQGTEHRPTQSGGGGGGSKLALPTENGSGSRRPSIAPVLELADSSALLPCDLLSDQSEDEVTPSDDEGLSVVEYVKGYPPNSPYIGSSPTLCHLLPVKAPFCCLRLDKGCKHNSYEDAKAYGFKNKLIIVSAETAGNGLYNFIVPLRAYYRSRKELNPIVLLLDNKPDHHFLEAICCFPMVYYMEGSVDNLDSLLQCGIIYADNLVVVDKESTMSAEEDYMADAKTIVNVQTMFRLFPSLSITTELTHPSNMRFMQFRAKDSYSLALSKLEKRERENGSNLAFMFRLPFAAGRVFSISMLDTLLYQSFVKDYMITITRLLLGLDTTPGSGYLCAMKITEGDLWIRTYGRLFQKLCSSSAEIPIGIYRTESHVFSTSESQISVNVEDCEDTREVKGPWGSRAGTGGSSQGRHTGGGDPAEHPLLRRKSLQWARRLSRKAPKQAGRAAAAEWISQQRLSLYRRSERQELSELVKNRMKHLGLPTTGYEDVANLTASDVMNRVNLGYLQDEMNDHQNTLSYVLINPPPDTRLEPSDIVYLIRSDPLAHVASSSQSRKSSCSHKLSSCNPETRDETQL
Format: cell-based
Protocol: KCNT1-WT-Basal—Patch Clamp Assay
Inhibition of KCNT1 (KNa1.1, Slack) was evaluated using a tetracycline inducible cell line (HEK-TREX). Currents were recorded using the SyncroPatch 384PE automated, patch clamp system. Pulse generation and data collection were performed with PatchController384 V1.3.0 and DataController384 V1.2.1 (Nanion Technologies). The access resistance and apparent membrane capacitance were estimated using built-in protocols. Current were recorded in perforated patch mode (10 μM escin) from a population of cells. The cells were lifted, triturated, and resuspended at 800,000 cells/ml. The cells were allowed to recover in the cell hotel prior to experimentation. Currents were recorded at room temperature. The external solution contained the following (in mM): NaCl 105, NMDG 40, KCl 4, MgCl2 1, CaCl2 5 and HEPES 10 (pH=7.4, Osmolarity ˜300 mOsm). The extracellular solution was used as the wash, reference and compound delivery solution. The internal solution contained the following (in mM): NaCl 70, KF 70, KCl 10, EGTA 5, HEPES 5 and Escin 0.01 (pH=7.2, Osmolarity ˜295 mOsm). Escin is made at a 5 mM stock in water, aliquoted, and stored at −20° C. The compound plate was created at 2× concentrated in the extracellular solution. The compound was diluted to 1:2 when added to the recording well. The amount of DMSO in the extracellular solution was held constant at the level used for the highest tested concentration. A holding potential of −80 mV with a 100 ms step to 0 mV was used. Mean current was measured during the step to 0 mV. […] The average mean current from 3 sweeps was calculated and the % inhibition of each compound was calculated. The % Inhibition as a function of the compound concentration was fit with a Hill equation to derive IC50, slope, min and max parameters. If KCNT1 inhibition was less than 50% at the highest tested concentration or if an IC50 could not be calculated, then a percent inhibition was reported in place of the IC50.
In this table, “A” indicates IC50 of less than or equal to 1 μM; “B” indicates inhibition of between 1 μM to 20 μM; and “C” indicates inhibition of greater than or equal to 20 μM.

Q: How did the IC50 turn out when `Cc1nc(C)c(C(=O)N[C@H](C)c2nc(-c3cccc(F)c3)no2)s1` [Compound I-37, (R)—N-(1-(3-(3-fluorophenyl)-1,2,4-oxadiazol-5-yl)ethyl)-2,4-dimethylthiazole-5-carboxamide] was run?
A: 1000 to 20000 nM

Q: Which IC50 does the source give for `C[C@H](NC(=O)c1ccc(Br)s1)c1nc(-c2ccnc(C(F)(F)F)c2)no1` [Compound I-18, (S)-5-bromo-N-(1-(3-(2-(trifluoromethyl)pyridin-4-yl)-1,2,4-oxadiazol-5-yl)ethyl)thiophene-2-carboxamide] here?
A: ≤ 1000 nM

Q: Which IC50 does the source give for `CC(NC(=O)c1ccc2c(c1)OCCO2)c1nc(-c2cccc(F)c2)no1` (stereo not shown) [Compound I-51, N-[1-[3-(3-fluorophenyl)-1,2,4-oxadiazol-5-yl]ethyl]-2,3-dihydro-1,4-benzodioxine-6-carboxamide] here?
A: 1000 to 20000 nM

Q: For `C[C@H](NC(=O)c1cc2ccc(C(F)(F)F)cc2s1)c1nc(-c2ccnc(C(F)(F)F)c2)no1` [Compound I-25, (S)-6-(trifluoromethyl)-N-(1-(3-(2-(trifluoromethyl)pyridin-4-yl)-1,2,4-oxadiazol-5-yl)ethyl)benzo[b]thiophene-2-carboxamide], which IC50 is on record?
A: ≤ 1000 nM

Q: `COC1CCC(C(=O)N[C@@H](C)c2nc(-c3ccnc(C(F)(F)F)c3)no2)CC1` (stereo partly drawn) [Compound I-69, (S)-4-methoxy-N-(1-(3-(2-(trifluoromethyl)pyridin-4-yl)-1,2,4-oxadiazol-5-yl)ethyl)cyclohexane-1-carboxamide] was tested. Which IC50 did it give?
A: 1000 to 20000 nM

Q: `C[C@H](NC(=O)CN1CCCCC1)c1nc(-c2ccnc(C(F)(F)F)c2)no1` [Compound I-35, (S)-2-(piperidin-1-yl)-N-(1-(3-(2-(trifluoromethyl)pyridin-4-yl)-1,2,4-oxadiazol-5-yl)ethyl)acetamide] was tested. Which IC50 did it give?
A: ≥ 20000 nM

Q: With `C[C@H](NC(=O)C1CC2(CCC2)C1)c1nc(-c2ccnc(C(F)(F)F)c2)no1` [Compound I-76, N-[(1S)-1-[3-[2-(trifluoromethyl)-4-pyridyl]-1,2,4-oxadiazol-5-yl]ethyl]spiro[3.3]heptane-2-carboxamide] as the compound, how does the IC50 read?
A: ≤ 1000 nM

Q: Which IC50 does the source give for `C[C@H](NC(=O)[C@@H](C)c1ccccc1)c1nc(-c2ccnc(C(F)(F)F)c2)no1` [Compound I-16, (S)-2-phenyl-N—((S)-1-(3-(2-(trifluoromethyl)pyridin-4-yl)-1,2,4-oxadiazol-5-yl)ethyl)propanamide] here?
A: ≤ 1000 nM

Q: For `Cc1nc(C)c(C(=O)N[C@@H](C)c2nc(-c3cccc(F)c3)no2)s1` [Compound I-39, (S)—N-(1-(3-(3-fluorophenyl)-1,2,4-oxadiazol-5-yl)ethyl)-2,4-dimethylthiazole-5-carboxamide], which IC50 is on record?
A: 1000 to 20000 nM

Q: For `C[C@H](NC(=O)C1CC(F)(F)C1)c1nc(-c2ccnc(C(F)(F)F)c2)no1` [Compound I-2, (S)-3,3-difluoro-N-(1-(3-(2-(trifluoromethyl)pyridin-4-yl)-1,2,4-oxadiazol-5-yl)ethyl)cyclobutane-1-carboxamide], which IC50 is on record?
A: 1000 to 20000 nM

Q: `C[C@H](NC(=O)[C@H](C)c1ccccc1)c1nc(-c2ccnc(C3CC3)c2)no1` [Compound I-58, (R)—N—((S)-1-(3-(2-cyclopropylpyridin-4-yl)-1,2,4-oxadiazol-5-yl)ethyl)-2-phenylpropanamide] was tested. Which IC50 did it give?
A: ≤ 1000 nM

Q: `C[C@H](NC(=O)C1CCCCC1)c1nc(-c2ccnc(C(F)(F)F)c2)no1` [Compound I-9] was tested. Which IC50 did it give?
A: ≤ 1000 nM

Q: How did the IC50 turn out when `C[C@H](NC(=O)c1nccn1C1CCC1)c1nc(-c2ccnc(C3CC3)c2)no1` [Compound I-104, (S)-1-cyclobutyl-N-(1-(3-(2-cyclopropylpyridin-4-yl)-1,2,4-oxadiazol-5-yl)ethyl)-1H-imidazole-2-carboxamide] was run?
A: 1000 to 20000 nM

Q: Which IC50 does the source give for `C[C@H](NC(=O)c1ccns1)c1nc(-c2ccnc(C(F)(F)F)c2)no1` [Compound I-22, (S)—N-(1-(3-(2-(trifluoromethyl)pyridin-4-yl)-1,2,4-oxadiazol-5-yl)ethyl)isothiazole-5-carboxamide] here?
A: 1000 to 20000 nM

Q: For `CC(=O)N1CCCC(C(=O)N[C@@H](C)c2nc(-c3ccnc(C(F)(F)F)c3)no2)C1` (mixture of isomers) [Compound I-85, 1-acetyl-N-[(1S)-1-[3-[2-(trifluoromethyl)-4-pyridyl]-1,2,4-oxadiazol-5-yl]ethyl]piperidine-3-carboxamide], which IC50 is on record?
A: ≥ 20000 nM

Q: How did the IC50 turn out when `C[C@H](NC(=O)Cc1ccccc1)c1nc(-c2ccnc(C3CC3)c2)no1` [Compound I-42, (S)—N-(1-(3-(2-cyclopropylpyridin-4-yl)-1,2,4-oxadiazol-5-yl)ethyl)-2-phenylacetamide] was run?
A: ≤ 1000 nM

Q: `Cc1nc(C(F)(F)F)ccc1C(=O)NC(C)c1nc(-c2cccc(F)c2)no1` (stereo not shown) [Compound I-47, N-[1-[3-(3-fluorophenyl)-1,2,4-oxadiazol-5-yl]ethyl]-2-methyl-6-(trifluoromethyl)pyridine-3-carboxamide] was tested. Which IC50 did it give?
A: 1000 to 20000 nM

Q: How did the IC50 turn out when `CCS(=O)(=O)c1ccc(C(=O)N[C@@H](C)c2nc(-c3ccnc(C4CC4)c3)no2)s1` [Compound I-93, (S)—N-(1-(3-(2-cyclopropylpyridin-4-yl)-1,2,4-oxadiazol-5-yl)ethyl)-5-(ethylsulfonyl)thiophene-2-carboxamide] was run?
A: ≤ 1000 nM

Q: Which IC50 does the source give for `CC[C@H](NC(=O)C1CCCCC1)c1nc(-c2ccnc(C(F)(F)F)c2)no1` [Compound I-20, (S)—N-(1-(3-(2-(trifluoromethyl)pyridin-4-yl)-1,2,4-oxadiazol-5-yl)propyl)cyclohexanecarboxamide] here?
A: ≤ 1000 nM

Q: `C[C@H](NC(=O)C1CCC(O)CC1)c1nc(-c2ccnc(C(F)(F)F)c2)no1` (single isomer, unassigned) [Compound I-78] was tested. Which IC50 did it give?
A: ≥ 20000 nM

Q: Which IC50 does the source give for `C[C@H](NC(=O)CC(C)(C)C)c1nc(-c2ccnc(C(F)(F)F)c2)no1` [III-3, (S)-3,3-dimethyl-N-(1-(3-(2-(trifluoromethyl)pyridin-4-yl)-1,2,4-oxadiazol-5-yl)ethyl)butanamide] here?
A: 1000 to 20000 nM

Q: `Cc1cccc(C(=O)N[C@@H](C)c2nc(-c3ccnc(C4CC4)c3)no2)c1` [Compound I-81, N-[(1S)-1-[3-(2-cyclopropyl-4-pyridyl)-1,2,4-oxadiazol-5-yl]ethyl]-3-methyl-benzamide] was tested. Which IC50 did it give?
A: ≤ 1000 nM

Q: Which IC50 does the source give for `C[C@H](NC(=O)c1cccnn1)c1nc(-c2ccnc(C(F)(F)F)c2)no1` [Compound I-24, (S)—N-(1-(3-(2-(trifluoromethyl)pyridin-4-yl)-1,2,4-oxadiazol-5-yl)ethyl)pyridazine-3-carboxamide] here?
A: ≥ 20000 nM

Q: How did the IC50 turn out when `C[C@H](NC(=O)N1CCCCC1)c1nc(-c2ccnc(C(F)(F)F)c2)no1` [II-10] was run?
A: 1000 to 20000 nM

Q: For `CC(C)Oc1cc(-c2noc([C@H](C)NC(=O)c3ccccc3)n2)ccn1` [Compound I-43, (S)—N-(1-(3-(2-isopropoxypyridin-4-yl)-1,2,4-oxadiazol-5-yl)ethyl)benzamide], which IC50 is on record?
A: ≤ 1000 nM
